The source of these data is the NIST ThermoML archive (doi:10.1016/j.fluid.2014.12.003).

± gives the expanded uncertainty stated by the source.

Usually mass density stands for mass per unit of volume.

The conditions of the series: 298.15 K; 101.33 kPa; Liquid; Vibrating tube method.
As for `CCCCCCCCCCO` [decan-1-ol], the mass density worked out at 826.38 ± 1 kg/m3.
Consider `CCCCCCO` [hexan-1-ol], for which the mass density came to 814.94 ± 1 kg/m3.
In the case of `Cc1ccccc1` [toluene], the mass density is 863.67 ± 1 kg/m3.
Regarding `CCc1ccccc1` [ethylbenzene], the mass density was 862.97 ± 1 kg/m3.
Regarding `CCCCCCCCO` [octan-1-ol], the mass density was 823.27 ± 1 kg/m3.
As to `c1ccsc1` [thiophene], the mass density is given as 1058.48 ± 1 kg/m3.
The result for `CCCC[N+]1(C)CCOCC1.N#C[C-](C#N)C#N` [4-butyl-4-methylmorpholinium tricyanomethanide] reads 1067.06 ± 1.3 kg/m3; that for `CCCC[N+]1(C)CCCC1.N#CC(=C=[N-])C#N` [1-butyl-1-methylpyrrolidinium tricyanomethanide], 1006.75 ± 1.3 kg/m3; that for `c1ccccc1` [benzene], 873.53 ± 1 kg/m3.
For `CCCCCCC` [heptane] the value was 679.55 ± 1 kg/m3.
